# Assay: Asthma Quality of Life Questionnaire with Standardized Activities (AQLQ(S))
# Format: in vivo, human
# Source text: The AQLQ(S) is a self-administered patient reported outcome to measure the functional impairments that are most troublesome to adolescents and adults ≥12 years of age as a result of their asthma.
# Asthma Quality of Life Questionnaire with Standardized Activities (AQLQ(S)) self-administered (≥12 years)
# The AQLQ(S) was designed as a self-administered patient reported outcome to measure the functional impairments that are most troublesome to adolescents and adults ≥12 years of age as a result of their asthma. The instrument is comprised of 32 items, each rated on a 7-point Likert scales from 1 to 7. The AQLQ(S) has 4 domains. The domains and the number of items in each domain are as follows: • Symptoms (12 items) • Activity limitation (11 items) • Emotional function (5 items) • Environmental stimuli (4 items)
# A global score is calculated ranging from 1 to 7 and a score by domain. Higher scores indicate better quality of life. […] Patients were to complete the questionnaire in an electronic diary during on-site visits.
# Secondary endpoints included pre-bronchodilator FEV1 change from baseline at EOT, ACQ-5 score change from baseline, and AQLQ score change from baseline. Other secondary and exploratory endpoints are described in Table 2.
# [1] = 400 mg TID, observed/LOCF imputed, n=53, mITT
smiles,measurement,setting,value
"CC(C)(C=C(C#N)C(=O)N1CCC[C@@H](n2nc(-c3ccc(Oc4ccccc4)cc3F)c3c(N)ncnc32)C1)N1CCN(C2COC2)CC1 (mixture of isomers) [rilzabrutinib, (R)-2-[3-[4-amino-3-(2-fluoro-4-phenoxy-phenyl)pyrazolo[3,4-d]pyrimidin-1-yl]piperidine-1-carbonyl]-4-methyl-4-[4-(oxetan-3-yl)piperazin-1-yl]pent-2-enenitrile]","AQLQ global score change from baseline at Week 12, LS Mean Diff vs. placebo","400 mg TID, mITT, all others than low EOS and low FeNO",0.35
same,"AQLQ global score change from baseline at Week 12, LS Mean Diff vs. placebo","400 mg TID, mITT, atopic medical conditions: no",0.37
same,"AQLQ global score change from baseline at Week 12, LS Mean Diff vs. placebo","400 mg TID, mITT, atopic medical conditions: yes",0.13
same,"AQLQ global score change from baseline at Week 12, LS Mean Diff vs. placebo","400 mg TID, mITT, background ICS dose high",0.26
same,"AQLQ global score change from baseline at Week 12, LS Mean Diff vs. placebo","400 mg TID, mITT, background ICS dose medium",0.31
same,"AQLQ global score change from baseline at Week 12, LS Mean Diff vs. placebo","400 mg TID, mITT, baseline ACQ-5 score >2",0.38
same,"AQLQ global score change from baseline at Week 12, LS Mean Diff vs. placebo","400 mg TID, mITT, baseline ACQ-5 score ≤2",0.29
same,"AQLQ global score change from baseline at Week 12, LS Mean Diff vs. placebo","400 mg TID, mITT, baseline BMI <25 kg/m^2",0.56
same,"AQLQ global score change from baseline at Week 12, LS Mean Diff vs. placebo","400 mg TID, mITT, baseline BMI ≥25-<30 kg/m^2",0.47
same,"AQLQ global score change from baseline at Week 12, LS Mean Diff vs. placebo","400 mg TID, mITT, baseline BMI ≥30 kg/m^2",−0.01
same,"AQLQ global score change from baseline at Week 12, LS Mean Diff vs. placebo","400 mg TID, mITT, baseline FEV1 reversibility <12%",0.12
same,"AQLQ global score change from baseline at Week 12, LS Mean Diff vs. placebo","400 mg TID, mITT, baseline FEV1 reversibility ≥12%",0.32
same,"AQLQ global score change from baseline at Week 12, LS Mean Diff vs. placebo","400 mg TID, mITT, baseline FeNO <25 ppb",0.15
same,"AQLQ global score change from baseline at Week 12, LS Mean Diff vs. placebo","400 mg TID, mITT, baseline FeNO <35 ppb",0.18
same,"AQLQ global score change from baseline at Week 12, LS Mean Diff vs. placebo","400 mg TID, mITT, baseline FeNO ≥25 ppb",0.44
same,"AQLQ global score change from baseline at Week 12, LS Mean Diff vs. placebo","400 mg TID, mITT, baseline FeNO ≥35 ppb",0.45
same,"AQLQ global score change from baseline at Week 12, LS Mean Diff vs. placebo","400 mg TID, mITT, baseline IgA <median 2190 mg/L",0.50
same,"AQLQ global score change from baseline at Week 12, LS Mean Diff vs. placebo","400 mg TID, mITT, baseline IgA ≥median 2190 mg/L",0.08
same,"AQLQ global score change from baseline at Week 12, LS Mean Diff vs. placebo","400 mg TID, mITT, baseline IgE <100 IU/mL",0.46
same,"AQLQ global score change from baseline at Week 12, LS Mean Diff vs. placebo","400 mg TID, mITT, baseline IgE <median 121.85 IU/mL",0.60
same,"AQLQ global score change from baseline at Week 12, LS Mean Diff vs. placebo","400 mg TID, mITT, baseline IgE ≥100 IU/mL",0.16
same,"AQLQ global score change from baseline at Week 12, LS Mean Diff vs. placebo","400 mg TID, mITT, baseline IgE ≥median 121.85 IU/mL",−0.02
same,"AQLQ global score change from baseline at Week 12, LS Mean Diff vs. placebo","400 mg TID, mITT, baseline blood eosinophil level 1 <0.15 10^9/L",0.07
same,"AQLQ global score change from baseline at Week 12, LS Mean Diff vs. placebo","400 mg TID, mITT, baseline blood eosinophil level 1 ≥0.15-<0.3 10^9/L",0.32
same,"AQLQ global score change from baseline at Week 12, LS Mean Diff vs. placebo","400 mg TID, mITT, baseline blood eosinophil level 1 ≥0.3 10^9/L",0.70
same,"AQLQ global score change from baseline at Week 12, LS Mean Diff vs. placebo","400 mg TID, mITT, baseline blood eosinophil level 2 <0.3 10^9/L",0.17
same,"AQLQ global score change from baseline at Week 12, LS Mean Diff vs. placebo","400 mg TID, mITT, baseline blood eosinophil level 2 ≥0.3 10^9/L",0.70
same,"AQLQ global score change from baseline at Week 12, LS Mean Diff vs. placebo","400 mg TID, mITT, baseline percent predicted FEV1 <77%",0.42
same,"AQLQ global score change from baseline at Week 12, LS Mean Diff vs. placebo","400 mg TID, mITT, baseline percent predicted FEV1 <80%",0.35
same,"AQLQ global score change from baseline at Week 12, LS Mean Diff vs. placebo","400 mg TID, mITT, baseline percent predicted FEV1 ≥77%",0.16
same,"AQLQ global score change from baseline at Week 12, LS Mean Diff vs. placebo","400 mg TID, mITT, baseline percent predicted FEV1 ≥80%",0.27
same,"AQLQ global score change from baseline at Week 12, LS Mean Diff vs. placebo","400 mg TID, mITT, baseline pre-bronchodilator FEV1 <2.1955 L",0.28
same,"AQLQ global score change from baseline at Week 12, LS Mean Diff vs. placebo","400 mg TID, mITT, baseline pre-bronchodilator FEV1 ≥2.1955 L",0.27
same,"AQLQ global score change from baseline at Week 12, LS Mean Diff vs. placebo","400 mg TID, mITT, baseline weight <60 kg",−0.08
same,"AQLQ global score change from baseline at Week 12, LS Mean Diff vs. placebo","400 mg TID, mITT, baseline weight ≥60-<90 kg",0.41
same,"AQLQ global score change from baseline at Week 12, LS Mean Diff vs. placebo","400 mg TID, mITT, baseline weight ≥90 kg",0.17
same,"AQLQ global score change from baseline at Week 12, LS Mean Diff vs. placebo","400 mg TID, mITT, female",0.32
same,"AQLQ global score change from baseline at Week 12, LS Mean Diff vs. placebo","400 mg TID, mITT, former smokers",−0.02
same,"AQLQ global score change from baseline at Week 12, LS Mean Diff vs. placebo","400 mg TID, mITT, low EOS (<0.15) and low FeNO (<25)",0.10
same,"AQLQ global score change from baseline at Week 12, LS Mean Diff vs. placebo","400 mg TID, mITT, male",0.15
same,"AQLQ global score change from baseline at Week 12, LS Mean Diff vs. placebo","400 mg TID, mITT, never smokers",0.34
same,"AQLQ global score non-responders at Week 12, number",[1],24
same,"AQLQ global score non-responders at Week 12, percentage",[1],(45.3) (22/2)
same,participants with AQLQ improvement of at least 0.5 from baseline at Week 12,"400 mg TID, placebo 40.3%, p=0.0456",54.7%
same,"AQLQ(S) Activity limitation score, Mean","Week 4, 400 mg BID, mITT",5.48
same,"AQLQ(S) Activity limitation score, Median","Week 4, 400 mg BID, mITT",5.55
same,"AQLQ(S) Activity limitation score, change from baseline, LS Mean","Week 4, 400 mg BID, mITT",0.72
same,"AQLQ(S) Activity limitation score, change from baseline, Mean","Week 4, 400 mg BID, mITT",0.73
same,"AQLQ(S) Activity limitation score, change from baseline, Median","Week 4, 400 mg BID, mITT",0.55
same,"AQLQ(S) Emotional function score, Mean","Week 4, 400 mg BID, mITT",5.85
same,"AQLQ(S) Emotional function score, Median","Week 4, 400 mg BID, mITT",6.40
same,"AQLQ(S) Emotional function score, change from baseline, LS Mean","Week 4, 400 mg BID, mITT",0.77
same,"AQLQ(S) Emotional function score, change from baseline, Mean","Week 4, 400 mg BID, mITT",0.61
same,"AQLQ(S) Emotional function score, change from baseline, Median","Week 4, 400 mg BID, mITT",0.40
same,"AQLQ(S) Environmental stimuli score, Mean","Week 4, 400 mg BID, mITT",5.13
same,"AQLQ(S) Environmental stimuli score, change from baseline, LS Mean","Week 4, 400 mg BID, mITT",0.60
same,"AQLQ(S) Environmental stimuli score, change from baseline, Mean","Week 4, 400 mg BID, mITT",0.67
same,"AQLQ(S) Environmental stimuli score, change from baseline, Median","Week 4, 400 mg BID, mITT",0.50
same,"AQLQ(S) Global score, Mean","Week 4, 400 mg BID, mITT",5.63
same,"AQLQ(S) Global score, Median","Week 4, 400 mg BID, mITT",5.69
same,"AQLQ(S) Global score, change from baseline, LS Mean","Week 4, 400 mg BID, mITT",0.80
same,"AQLQ(S) Global score, change from baseline, Mean","Week 4, 400 mg BID, mITT",0.73
same,"AQLQ(S) Global score, change from baseline, Median","Week 4, 400 mg BID, mITT",0.69
same,"AQLQ(S) Symptoms score, Mean","Week 4, 400 mg BID, mITT",5.83
same,"AQLQ(S) Symptoms score, Median","Week 4, 400 mg BID, mITT",6.00
same,"AQLQ(S) Symptoms score, change from baseline, LS Mean","Week 4, 400 mg BID, mITT",0.92
same,"AQLQ(S) Symptoms score, change from baseline, Mean","Week 4, 400 mg BID, mITT",0.80
same,"AQLQ(S) Symptoms score, change from baseline, Median","Week 4, 400 mg BID, mITT",0.75
same,"AQLQ(S) Environmental stimuli score, change from baseline, LS Mean Diff vs. placebo","Week 4, 400 mg BID, mITT, 95% CI 0.02, 1.49",0.76
same,"AQLQ(S) Activity limitation score, change from baseline, LS Mean Diff vs. placebo","Week 4, 400 mg BID, mITT, 95% CI 0.26, 1.24",0.75
same,"AQLQ(S) Emotional function score, change from baseline, LS Mean Diff vs. placebo","Week 4, 400 mg BID, mITT, 95% CI 0.30, 1.74",1.02
same,"AQLQ(S) Global score, change from baseline, LS Mean Diff vs. placebo","Week 4, 400 mg BID, mITT, 95% CI 0.34, 1.34",0.84
same,"AQLQ(S) Symptoms score, change from baseline, LS Mean Diff vs. placebo","Week 4, 400 mg BID, mITT, 95% CI 0.41, 1.32",0.86

# Reference: US20260345619A1 (Principia Biopharma Inc., priority 2023, published 2026)
